In US10538485B2, “Compounds for use as therapeutic agents affecting P53 expression and/or activity” (ABIVAX, priority 2011, dated 2020):

What was measured:
Format in all cases: cell-based
[1] = test system: MDA-MB231-luc-D3H2LN cells; assay: Invasion of MDA-MB231-D3H2LN cells into collagen; conditions: MDA-MB-231, anti-invasive effect in MDA-MB231 breast cancer cells, concentration giving 0.5 fold the effect of 10 μM Y-27632 ref. compound, read-out: 0.5 fold effect compared to 10 μM Y-27632
Excerpt: 13.4 Effect of Drug Compounds on Invasion of MDA-MB231-D3H2LN Cells into Collagen
A key step in the generation of tumor metastasis is the invasion of tumor cells into the extracellular matrix, a major component of which is collagen. Therefore, the invasion of tumor cells into collagen in vitro may be indicative of the generation of metastasis in vivo. E. g., MDA-MB231-luc-D3H2LN […] breast cancer cells display indeed both higher invasion into collagen in vitro and a higher metastatic potential in vivo as compared to MDA-MB231 cells (from which they were derived). Using these MDA-MB231-luc-D3H2LN cells as a model, the aim of the experiment described here is to identify drug compounds that inhibit the invasion of tumor cells into collagen in vitro, therefore potentially inhibiting also the generation of tumor metastasis in vivo.
Step 1: Preparation of cells at the bottom of a collagen gel: Cells are suspended in a liquid collagen solution (4° C.), distributed into BSA-coated wells, and then collected at the bottom of the wells by centrifugation. The collagen is then solidified by incubation at 37° C. The BSA coating improves the adhesion of the collagen gel.
Step 2: Pre-treatment with the compounds to be tested: Concentrated drug solutions are then added on top of the collagen, and cells are pre-incubated for 24 h with the drugs at low serum conditions (0.025% FBS).
Step 3: Stimulation of invasion: Medium with 5% FBS is then added in order to stimulate invasion of the cells into the collagen gel.
Step 4: Fixation and staining: Following another 24 h incubation, cells are fixed and nuclei are stained.
Step 5: Analysis: Finally, plates are analyzed using an automated microscope. Fluorescent beads that have been included into the BSA coating serve to detect the bottom of the wells. Pictures of the stained nuclei are taken at the same level (0 μm) as well as 25 μm and 50 μm above.
Invasion assay: Negative control: No drug (just DMSO at equivalent concentration). Positive control: 10 μM Y-27632. To avoid edge effects, only the 60 central wells B2-G11 are used; lines A and H as well as columns 1 and 12 remain free. Each drug is tested at least in triplicate. The positive and negative controls should be tested in double triplicates at different positions on each plate. Typical plate map (−=negative control, +=positive control, 1-16=16 different drug compounds):
for each well, calculate the mean invasion distance of the counted cells: (25 μm×number of cells at 25 μm+50 μm×number cells at 50 μm)/sum of cells at 0, 25 and 50 μm
for all four parameters (number of cells at 0 μm, number of cells at 25 μm, number of cells at 50 μm, mean invasion distance of the counted cells), calculate means, SD and CV of the replicates (n=6 for the controls; n=3 for the samples)
invalidate any replicate with a CV≥50% (compound to be re-tested, or assay to be repeated if CV≥50% for the untreated negative control or the compound Y-27632-treated positive control). Y27632 is a selective inhibitor of the Rho-associated protein kinase p160ROCK of the following formula
validate the assay only if the mean invasion distance of the cells treated with 10 μM Y-27632 (positive control) is decreased by ≥40% as compared to the untreated negative control
Anti-invasive effect in MDA-MB231 breast cancer cells: 0.5 fold effect compared to 10 μM Y-27632 ref. compound.

[2] = test system: p53 (wild-type p53 MCF7 cells); assay: p53 and Δ133p53 mRNA level by RT-qPCR in MCF7 cells; conditions: 5 μM, 48 hours, vs DMSO
Description: (§1) The compounds of the invention have been tested according to the following pharmacological test and the three compounds have been more particularly tested: (40), (1) and (45), all diluted in DMSO. Their effects were thus compared to cells treated with DMSO. A positive control was used, TG003, a benzothiazole compound known to alter splicing through the inhibition of Clk/Sty family activity (Sigma, ref: T5575).
(§2) Two breast cancer cell lines have been treated with 5 μM of drugs for 48 hours: wild-type p53 MCF7 cells and mutant p53 (R280K) MDA-MB-231-Luc-D3H2N provided by Caliper Life Science (parental Line source: American Type Culture collection). The MDA-MB-231-Luc-D3H2N cells were maintained in two different media during treatment: a DMEM supplemented with 10% foetal calf serum (FCS) and a FCS-free medium for 24 hours followed by 24 hours in a complete medium. The MC7 cells were maintained in a DMEM/FCS 10% medium.
(§3) Cells were harvested after 48 hours of treatment. Total RNAs (RNeasy Mini-Kit, Qiagen) and proteins (NuPage LDS 1×, Invitrogen) were extracted to analyse mRNA expression by nested RT-PCR or RT-qPCR and protein expression by Western Blot.
(§4) Analysis of p53 expression was assessed both at mRNA (full-length and truncated, Δ133p53 isoforms) and protein (full-length) levels by RT-qPCR and Western Blot, respectively.
(§5) The p53 isoform cDNA being too long to be specifically quantified by RT-qPCR, a semi-quantitative RT-PCR method was therefore used, requiring high quality total RNA 28S/18S ratio (>1.5). After reverse-transcription of 500 ng of total RNA using random primers, actin cDNA was amplified by PCR to confirm reverse-transcription efficiency. 0.5 μg of total RNA from each tumour sample was reverse-transcribed (AMV RT, 45 C, random primer) and cDNA quality confirmed by amplification of actin by PCR in 30 cycles. p53 isoform cDNA was amplified by 2 nested PCR of 30 cycles using primers specific of each isoforms as described in Bourdon et al. (Genes Dev., 2005, 19: 2122). Tumours were considered to express each p53 isoform after sequencing of the corresponding PCR fragment.

[3] = test system: p53 (mutant p53 (R280K) MDA-MB-231-Luc-D3H2N cells); assay: p53 mRNA level by RT-qPCR in MDA-MB-231-Luc-D3H2N cells; conditions: 5 μM, 48 hours
Description: as §1, §2, §3, §4, §5

[4] = test system: p53 (mutant p53 (R280K) MDA-MB-231-Luc-D3H2N cells); assay: p53 protein expression by Western Blot (4 antibodies) in MDA-MB-231-Luc-D3H2N cells; conditions: 5 μM, 48 hours
Description: as §1, §2, §3
p53 protein expression was determined using a panel of 4 different antibodies, namely DO1, SAPLI, CMI and DO12 as described in Bourdon et al. (Genes Dev., 2005, 19: 2122), to avoid problem of detection due to post-translational modification.
The amount of total proteins in each extract was quantified using BCA kit (promega). 8% SDS-PAGE gels were used. Equal amount (30 μg) of proteins was loaded on each lane. Proteins were then transferred electrophoretically on nitrocellulose membrane. Membranes were blocked in TBS/0.1% Tween 20 containing 3% milk for one hour and then incubated overnight with the primary antibodies diluted in TBS/0.1% Tween 20 containing 3% milk. After several washes in TBS/Tween, membranes were incubated with anti-rabbit Ig antibodies linked to HRP. Membranes were developed with ECL according to the manufacturer's instructions.
Scanned autoradiographs were quantified using AIDA/2D densitometry software.

[5] = test system: p53-target genes Hdm2, Bcl-2, p21 (mutant p53 MDA-MB-231-Luc-D3H2N cells); assay: p53 transcriptional activity: p53-target gene expression by Western-blot in MDA-MB-231-Luc-D3H2N cells; conditions: 5 μM, 48 hours
Description: as §1, §2, §3
Analysis of p53 transcriptional activity was assessed through analysis of p53-target gene expression by Western-blot. Four p53-target genes were studied: Hdm2, Bcl-2, p21 and Bax. Hdm2 is known to bind p53 and to negatively regulate p53 activity and stability. p21 is known to mediate p53 dependent cycle arrest. Bcl 2 is known to have an anti-proliferative effect and an apoptotic protective effect, while Bax is known to have a pro-apoptic effect. Bax was not detected in both MCF7 and MDA-MB-231-Luc-D3H2N cells, while p21 was not detected in MDA-MB-231-Luc-D3H2N cells maintained in FCS-free medium. The Western-blot was performed as above described using the antibodies described in Bourdon et al., Genes Dev., 2005, 19: 2122.

[6] = test system: p53 isoforms produced by alternative splicing (wild-type p53 MCF7 cells); assay: p53 isoforms (α, β, γ) expression at mRNA level in MCF7 cells; conditions: 5 μM, 48 hours, RT-qPCR
Description: as §2, §3
(§6) Expression of p53 isoforms produced by alternative splicing (α, β and γ) was analysed at mRNA levels by RT-qPCR using primers/probe specific of each C-terminal variants. The α-forms are the most abundant forms. In the low abundant forms, β-forms are more expressed than γ-forms.
as §5, with “A semi-quantitative” for “The p53 isoform cDNA being too long to be specifically quantified by RT-qPCR, a semi-quantitative”, “method” for “method was therefore used,”, “RT, 45C,” for “RT, 45 C,”, “described by” for “described in”

[7] = test system: p53 isoforms produced by alternative splicing (mutant p53 MDA-MB-231-Luc-D3H2N cells); assay: p53 isoforms (α, β, γ) expression at mRNA level in MDA-MB-231-Luc-D3H2N cells; conditions: 5 μM, 48 hours
Description: as §2, §3, §6
as §5, with “A semi-quantitative” for “The p53 isoform cDNA being too long to be specifically quantified by RT-qPCR, a semi-quantitative”, “method” for “method was therefore used,”, “RT, 45C,” for “RT, 45 C,”, “described by” for “described in”

[8] = mutant p53 MDA-MB-231-Luc-D3H2N cells in FCS-free medium
[9] = mutant p53 MDA-MB-231-Luc-D3H2N cells in normal medium
[10] = mutant p53 MDA-MB-231-Luc-D3H2N cells in FCS-free medium, RT-qPCR
[11] = mutant p53 MDA-MB-231-Luc-D3H2N cells in normal medium, RT-qPCR

CCN(CC)CCCNC(=O)c1ccccc1Nc1cccc(/C=C/c2ccncc2)c1 [Compound 129]
IC (0.5-fold effect of 10 uM Y-27632) [1]: 0.2 µM

O=S(=O)(NCCN1CCCCC1)c1cccc(Nc2cccc(/C=C/c3ccncc3)c2)c1 [Compound 24]
IC (0.5-fold effect of 10 uM Y-27632) [1]: 0.64 ± 0.2 µM

CC(C)CCNC(=O)c1cccc(Nc2cccc(/C=C/c3ccncc3)c2)c1 [Compound 1, (E)-N-(3-methylbutyl)-3-[3-(2-pyridin-4-ylvinyl)phenylamino]benzamide]
total p53 expression (total isoforms, TA) at mRNA levels [2]: did not change
Δ133p53 mRNA level [2]: increased
p53 expression at mRNA levels (total isoforms, TA): decreased or not [3, 8]: decreased
p53 expression at mRNA levels (total isoforms, TA) [3, 9]: significant decrease
p53 protein levels (full-length) [4, 8]: did not change
p53 protein levels (full-length) [4, 9]: did not change
expression of Hdm2 (p53-target gene) [5, 8]: slight decrease
p53-target genes expression [5, 9]: did not affect
expression of p53 β-forms (mRNA) [6]: tend to increase
expression of p53 γ-forms (mRNA) [6]: tend to increase
p53 α-form expression at mRNA levels [6]: did not change
expression of p53 γ-forms (mRNA) [7, 10]: no significant increase
p53 α-form expression at mRNA levels [7, 10]: did not change
p53 γ-forms expression by nested RT-PCR [7, 8]: restoration
expression of p53 β-forms (mRNA) [7, 11]: tend to increase
expression of p53 γ-forms (mRNA) [7, 11]: tend to increase
p53 α-form expression at mRNA levels [7, 11]: did not change
p53 γ-forms expression by nested RT-PCR [7, 9]: restoration

NC(=O)c1cccc(Nc2cccc(/C=C/c3ccncc3)c2)c1 [Compound 9, 3-[3-(2-pyridin-4-ylvinyl)phenylamino]benzamide]
IC (0.5-fold effect of 10 uM Y-27632) [1]: 1.1 ± 0.4 µM

O=C(NCCCN1CCCCC1)c1cccc(Nc2cccc(/C=C/c3ccncc3)c2)c1 [Compound 19]
IC (0.5-fold effect of 10 uM Y-27632) [1]: 0.25 ± 0.05 µM

CCN(CC)CCCNC(=O)c1ccccc1Nc1ccc(OCc2ccccc2)cc1 [Compound 50]
IC (0.5-fold effect of 10 uM Y-27632) [1]: 1 µM

O=S(=O)(NCCN1CCCC1)c1cccc(Nc2cccc(/C=C/c3ccncc3)c2)c1 [Compound 25]
IC (0.5-fold effect of 10 uM Y-27632) [1]: 0.5 ± 0.21 µM

CCN(CC)CCCNC(=O)c1ccc(Nc2cccc(/C=C/c3ccncc3)c2)c(C)c1 [Compound 6]
IC (0.5-fold effect of 10 uM Y-27632) [1]: 0.7 ± 0.1 µM

CCN(CC)CCCNC(=O)c1ccccc1Nc1cccc(OC(F)(F)F)c1 [Compound 49]
IC (0.5-fold effect of 10 uM Y-27632) [1]: 0.13 ± 0.3 µM

O=S(=O)(NCCCN1CCOCC1)c1cccc(Nc2cccc(/C=C/c3ccncc3)c2)c1 [Compound 16]
IC (0.5-fold effect of 10 uM Y-27632) [1]: 0.75 ± 0.19 µM

O=S(=O)(NCCCN1CCCCC1)c1cccc(Nc2cccc(/C=C/c3ccncc3)c2)c1 [Compound 17]
IC (0.5-fold effect of 10 uM Y-27632) [1]: 0.83 ± 0.09 µM

CN1CCN(CCCNC(=O)c2cccc(Nc3cccc(/C=C/c4ccncc4)c3)c2)CC1 [Compound 21, (E)-[3-(4-methyl-piperazinyl)-propyl]-3-[3-(2-pyridin-4-ylvinyl)-phenylamino]-benzamide]
IC (0.5-fold effect of 10 uM Y-27632) [1]: 0.17 ± 0.04 µM

CCN(CC)CCCNS(=O)(=O)c1cccc(Nc2cccc(/C=C/c3ccncc3)c2)c1 [Compound 18, N-(3-diethylaminopropyl)-3-[3-(2-pyridin-4-ylvinyl)phenylamino]benzenesulfonamide]
IC (0.5-fold effect of 10 uM Y-27632) [1]: 0.55 ± 0.05 µM

O=C(NCCCN1CCCC1)c1cccc(Nc2cccc(/C=C/c3ccncc3)c2)c1 [Compound 22]
IC (0.5-fold effect of 10 uM Y-27632) [1]: 0.3 ± 0.05 µM
